Measurements published in patent publication US7745465B2, “Method of enhancing cellular production of molecular chaperone, hydroxylamine derivatives useful for enhancing the chaperone production and the preparation thereof” (CytRx Corporation, priority 1995, dated 2010).

What was measured:
hsp72 [1] = assay: Heat stress induced hsp72 level in U-937 leukemia cells; assay type: cell-based, human; conditions: U-937 cells, 10^−5 M, treatment preceded heat stress
Experimental: (§1) From the applied cells the 3T3 and L-929 mouse fibroblasts were cultured in MEM medium and grew in monolayer, the U-937 human leukemia cells were maintained in RPMI-1640 medium, in suspension culture, while the HeLa human epithelial cells were cultured in DMEM medium and in monolayer form. Cell cultures were maintained as described in example 6.2 (a) with the difference that cells were cultured in the above mentioned culture mediums.
(§2) Experiments were carried out applying stress before and after the drug treatment. Stress was provoked by heat, by chemical agent, HgCl2 treatment. The test compounds were applied in the treatments at the 10^−5 M concentration.
(§3) The experiments on 3T3 cell applying heat stress were performed as described in the 6.2. (c) point of example 6, with the difference that stress was induced by a 30 min. exposure at 43° C. temperature and treatment with the test compounds was performed 15 min. before or 100 min. after the heat stress.
(§4) Experiments using heat shock on U-937 leukemia and L-929 mouse fibroblast cells were carried out similarly as described above, but drug treatments in these tests always preceded the heat stress. The compound N-[2-hydroxy-3-(1-piperidinyl)-propoxy]-3-pyridine-carboximidoyl chloride maleate was tested at the 10^−5 M concentration under these experimental conditions.

[2] = test system: Rats with genetic hypertension; assay: Morphological examination of the thoracic aorta of rats with genetic hypertension; assay type: in vivo, rat; conditions: daily oral treatment (20 mg/kg 8 days or 5 mg/kg 20 days)
Experimental: Rats with genetic hypertension were divided into four groups of four. The groups were treated daily, orally, the first group with physiological saline, the second group with N-[2-hydroxy-3-(1-piperidinyl)]-propoxy-3-pyridine-carboximidoyl-chloride maleate (20 mg/kg) for 8 days, the third group with N-[2-hydroxy-3-(1-piperidinyl)-propoxy]-benzimidoyl-chloride monohydrochloride (5 mg/kg) for 20 days and the fourth group with N-[2-hydroxy-3-(1-piperidinyl)-propoxy]-2-thiophenecarboximidoyl-chloride monohydrochloride (5 mg/kg) for 20 days. Animals were sacrificed, aortas were isolated, snap frozen in liquid nitrogen and were stored at −70° C. till they were used.
The examination was performed according to published methods (Br. J. of Pharmacol., 1995; 115, […]). A 1 mm^2 area of the thoracic aorta was excised and fixed in 2.5% glutaral-dehyde at room temperature. Post fixation was performed in 1% osmium-tetroxide for one hour. The tissue was dehydrated in ethanol and was embedded in Durcupan ACM. Pictures were taken by a Hitachi 7100 electronmicroscope and were evaluated qualitatively.

HSP72 [3] = assay: Heat stress induced hsp72 level in L-929 mouse fibroblast cells; assay type: cell-based; conditions: L-929 cells, 10^−5 M, treatment preceded heat stress
Experimental: as §1, §2, §3, §4

hsp26 mRNA = assay: Northern blot of hsp26 mRNA in S. cerevisiae; assay type: cell-based, Saccharomyces cerevisiae; conditions: 10-100 μM for 5 min. to 1 hour at 25° C.
Experimental: To S. cerevisiae cells that were maintained at 25° C., varying concentration of N-[2-hydroxy-3-(1-piperidinyl)propoxy]-3-piridinecarboximidoyl chloride maleate was introduced (concentrations between 10 to 100 μM), cells were then incubated for one hour at 25° C. in the presence of N-[2-hydroxy-3-(1-piperidinyl)propoxy]-3-piridinecarboximidoyl chloride maleate. The temperature was then increased to 42° C., and the oxygraph measurements were taken as described in the Patriarca reference.
The cells treated with N-[2-hydroxy-3-(1-piperidinyl)propoxy]-3-pyridine carboximidoyl chloride maleate were tested for concomitant induction of hsp genes, using Northern Blotting procedure. The method of extracting, purifying mRNAs from eukaryotic cells, and analyzing the RNA thus obtained using Northern blotting procedure is well known in the art and described in Maniatis, and Maresca, et al. Archives Medial Research 24: 247-249 (1993), both of the references being fully incorporated herein. The Northern blotting protocol is also described in Example 7 set forth above. Hsp 26 and hsp70 DNA sequences were used as probes.

HaCaT cells = assay: Protection of HaCaT keratinocytes against 48° C. heat exposure (viability); assay type: cell-based, human
Text: HaCaT cell line is a spontaneously immortalized, ancuploid human keratinocyte cell line derived from normal human adult skin (Boukamp et al., J. Cell Biol. 106:761-771 (1988)), HaCaT is a cell line with full epidermal differentiation capacity, with normal keratinization and with nontumorogenic character. This rapidly multiplying keratinocyte line with high ditharnol sensitivity is also characterized by the presence of steroid receptors. HaCaT cells (4×10^5 cells per Petri-dish with a diameter of 35 mm) were seeded and grown in DMEM supplemented with 5% fetal calf serum (Gibco, Cat. No. 011-6290H) under a humidified atmosphere of 5% CO2 at 37° C. 24 hours after plating, the cultures were rinsed with PBS and treated by heat or light.
The confluent cultures of the cells were exposed to heat (42, 44, 46, 47, 48° C.) or UV light (UVA I, 2, 4, 6 J/cm^2). Heat exposure was provided in circulating water baths. As a UV light source, Waldmann PUVA 4000 was used with an energy spectrum of the final output between 320 an 390 nm, peaking at 365 nm. The energy output was monitored by an IL-1700 radiometer equipped with UVA and UVB sensor.
The morphology of the cells was monitored using phase contrast microscopy (Opton Axioplan Microscope, with Plan-Apochromat Ph phase contrast objectives). […]

## O=C(O)/C=C\C(=O)O.OC(CON=C(Cl)c1cccnc1)CN1CCCCC1 (stereo not drawn) [N-[2-hydroxy-3-(1-piperidinyl)-propoxy]3-pyridinecarboximidoyl chloride maleate]
hsp72 [1]
  increase in the heat stress induced hsp72 level: more than 50%
[2]
  regeneration of the cells of aorta: facilitated the regeneration of the cells of aorta
HSP72 [3]
  increase in the heat stress induced hsp72 level: more than 50%
hsp26 mRNA
  induction of hsp 26: induction of hsp 26 was observed
HaCaT cells; combined treatment with 42° C. and compound, 24 hours after 48° C.
  increase in viability: 140%
HaCaT cells; pre-treatment 5×10^-5 M for one hour, 24 hours after the 48° C. treatment
  cell viability increased to: 84%
